The subject of data set [1] is acutely dissociated and purified rat OPCs. The data set is described as follows: Acute OL differentiation assay (MBP expression/cell, immunofluorescent image quantification). In kind it is cell-based. The note with it: Rattus norvegicus, sheet "All OLga data", relative to quetiapine. Summed up: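 Oligodendrocyte precursor cells were enriched from P6-P7 Sprague–Dawley rat brains by immunopanning (RAN-2 and GalC depletion, O4 selection), plated at 5000 cells/well in serum-free, mitogen-free differentiation media on PDL/laminin 96-well view plates, centrifuged at 200×g, and pre-incubated 1–2 h before test compounds were added in quadruplicate. On DIV4, cells were fixed, stained for MBP and DAPI, imaged automatically, and MBP expression per cell was quantified.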

A further data set has as its system expanded OPCs. Description: cells. The note with it: for viability at 0.1 µM / viability at 1 µM / viability at 10 µM: Rattus norvegicus, 72 h; for 0.1 µM (% DMSO) / 1 µM (% DMSO) / 10 µM (% DMSO): alamarBlue viability of expanded OPCs, relative to DMSO control; for 0.1 µM (% DMSO): compound at 0.1 µM; for 1 µM (% DMSO): compound at 1 µM; for 10 µM (% DMSO): compound at 10 µM. Summed up:
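Expanded OPCs seeded at 10,000 cells/well in differentiation media, then exposed to NCC library compounds at 10, 1 and 0.1 µM (quadruplicate, 0.1% DMSO) for three days. Viability read as alamarBlue fluorescence (560/590 nm) after 4 h at 37 °C; tunicamycin 5 ng/ml served as toxicity control.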
(Resazurin is reduced to fluorescent resorufin, in cell work by metabolically active cells.)

[2] abbreviates: test compound at 2 uM, NCC library screen, read-out: 2 uM (% Quet).
[3] abbreviates: test compound at 10 uM, NCC library screen, read-out: 10 uM (% Quet).
Where [4] appears, read: read-out: 0.1 µM (% DMSO), alamarBlue viability, NCC library compound at 0.1 µM, sheet "All Tox data".
The mark [5] stands for this setting: read-out: 1 µM (% DMSO), alamarBlue viability, NCC library compound at 1 µM, sheet "All Tox data".
Where [6] appears, read: read-out: 10 µM (% DMSO), alamarBlue viability, NCC library compound at 10 µM, sheet "All Tox data".
Where [7] appears, read: 2 uM test compound, read-out: OL differentiation, 2 uM (% Quet).
Where [8] appears, read: 10 uM test compound, read-out: OL differentiation, 10 uM (% Quet).
The mark [9] stands for this setting: read-out: 0.1 µM (% DMSO), alamarBlue viability of expanded OPCs, compound at 0.1 µM, sheet All Tox data.
[10] abbreviates: read-out: 1 µM (% DMSO), alamarBlue viability of expanded OPCs, compound at 1 µM, sheet All Tox data.
Setting [11] is: read-out: 10 µM (% DMSO), alamarBlue viability of expanded OPCs, compound at 10 µM, sheet All Tox data.

This note sets out measurements from article PMC5011342, “A high throughput drug screening assay to identify compounds that promote oligodendrocyte differentiation using acutely dissociated and purified oligodendrocyte precursor cells” (BMC Research Notes, 2016).

Each structure is given as a SMILES string. Where two headings read alike, the source gives them in different places.

A word on the viability: it is a read-out of living cells in per cent, often relative to untreated cells. As for `C#C[C@]1(O)CC[C@H]2[C@@H]3CCC4=CC(=O)CC[C@@H]4[C@H]3CC[C@@]21C` [Norethindrone], the activation at 2 µM in data set [1] (setting [2]) was -0.9%. The activation at 10 µM in data set [1] (setting [3]) was -32%. In addition, the viability at 0.1 µM in the data set on expanded OPCs (setting [4]) stood at 95%. In the data set on expanded OPCs (setting [5]), the viability at 1 µM was determined as 87.2%. The viability at 10 µM with expanded OPCs (setting [6]) was determined as 80.6%.
The corresponding values for `C#C[C@]1(OC(C)=O)CC[C@H]2[C@@H]3CCC4=CC(=O)CC[C@@H]4[C@H]3CC[C@@]21C` [Norethisterone acetate] are -15%, -14.3%, 103%, 93.1% and 101%.
As to `CCn1cc(C(=O)O)c(=O)c2cc(F)c(N3CCNCC3)cc21` [Norfloxacin], the activation at 2 µM in data set [1] (setting [2]) was -20.2%. Besides, the activation at 10 µM in data set [1] (setting [3]) is -13%. Further, in the data set with expanded OPCs, the “0.1 µM (% DMSO)” value is 111.0 % DMSO, the “1 µM (% DMSO)” value is on record as 105.5 % DMSO and the “10 µM (% DMSO)” value is listed as 99.0 % DMSO.
For the molecule `c1cncc([C@@H]2CCCN2)c1` [Nornicotine], the activation at 2 µM in data set [1] (setting [7]) came out at 18.1%. Besides, the activation at 10 µM in data set [1] (setting [8]) was found to be 10.4%. Besides, the viability at 0.1 µM with expanded OPCs (setting [9]) is 86%. Moreover, in the data set on expanded OPCs (setting [10]), the viability at 1 µM came out at 101%. In the data set with expanded OPCs (setting [11]), the viability at 10 µM was found to be 98.4%.
On to `CNCCC=C1c2ccccc2CCc2ccccc21` [Nortriptyline], for which the activation at 0.08 µM in data set [1] (test compound at 0.08 uM, NCC library screen, read-out: 0.08 uM (% Quet)) turned out to be 2.3%. In data set [1] (test compound at 0.4 uM, NCC library screen, read-out: 0.4 uM (% Quet)), the activation at 0.4 µM was -28.1%. In the data set with expanded OPCs, the “0.1 µM (% DMSO)” value came out at 66.6 % DMSO, the “1 µM (% DMSO)” value was 28.2 % DMSO and the “10 µM (% DMSO)” value is recorded as 13.8 % DMSO.
For `CC1COc2c(N3CCN(C)CC3)c(F)cc3c(=O)c(C(=O)O)cn1c23` (stereo not drawn) [Ofloxacin], the figures for the activation at 2 µM in data set [1] (setting [7]) and in data set [1] (setting [2]) were -4.3% and 3.8%, respectively. For the same molecule, the activation at 10 µM in data set [1] (setting [8]) was 4.9%; in data set [1] (setting [3]), -3.8%. The viability at 0.1 µM with expanded OPCs (setting [9]) amounted to 95.3%. The viability at 1 µM with expanded OPCs (setting [10]) turned out to be 91.5%. The viability at 10 µM in the data set with expanded OPCs (setting [11]) is 99.5%. In the data set on expanded OPCs, the “0.1 µM (% DMSO)” value was 93.4 % DMSO. In addition, the “1 µM (% DMSO)” value in the data set on expanded OPCs stood at 91.6 % DMSO. Further, the “10 µM (% DMSO)” value with expanded OPCs is 89.4 % DMSO.
Consider `Cc1cc2c(s1)Nc1ccccc1N=C2N1CCN(C)CC1` [Olanzapine], for which the activation at 0.4 µM in data set [1] (0.4 uM test compound, read-out: OL differentiation, 0.4 uM (% Quet)) was -3%. Besides, the activation at 2 µM in data set [1] (setting [7]) was -9.8%. Moreover, in the data set with expanded OPCs (setting [9]), the viability at 0.1 µM turned out to be 90.8%. In addition, the viability at 1 µM in the data set with expanded OPCs (setting [10]) worked out at 60.6%. The viability at 10 µM with expanded OPCs (setting [11]) is 30.2%.
Consider `CC[C@@H]1C=CC=CC[C@H](C)[C@@H](O)[C@@H](C)C(=O)[C@H](C)[C@@H](O)[C@H](C)C(=O)[C@H](C)[C@@H](O)[C@H](C)C=CC(=O)O[C@H]2[C@@H](C)[C@@H](CC1)O[C@@]1(CC[C@@H](C)[C@@H](C[C@H](C)O)O1)[C@@H]2C` [Oligomycin C], for which, in data set [1] (setting [7]), the activation at 2 µM is -33.8%. The activation at 10 µM in data set [1] (setting [8]) was -128%. Besides, in the data set with expanded OPCs (setting [9]), the viability at 0.1 µM came out at 86.9%. Moreover, in the data set on expanded OPCs (setting [10]), the viability at 1 µM was 87%. Also, the viability at 10 µM in the data set on expanded OPCs (setting [11]) came to 68.4%.
As to `CCCc1nc(C(C)(C)O)c(C(=O)O)n1Cc1ccc(-c2ccccc2-c2nnn[nH]2)cc1` [Olmesartan], the activation at 2 µM in data set [1] (setting [7]) was -15.6%. In addition, the activation at 10 µM in data set [1] (setting [8]) is -11.9%. Also, the viability at 0.1 µM in the data set on expanded OPCs (setting [9]) stood at 91.4%. In the data set on expanded OPCs (setting [10]), the viability at 1 µM came to 87.4%. The viability at 10 µM in the data set on expanded OPCs (setting [11]) stood at 93.9%.
Regarding `CN(C)CC/C=C1/c2ccccc2COc2ccc(CC(=O)O)cc21` [Olopatadine], the activation at 2 µM in data set [1] (setting [2]) was -29.3%. In addition, the activation at 10 µM in data set [1] (setting [3]) was -29%. The viability at 0.1 µM with expanded OPCs (setting [4]) was 88.7%. The viability at 1 µM in the data set with expanded OPCs (setting [5]) was 89.3%. Further, the viability at 10 µM in the data set on expanded OPCs (setting [6]) came out at 77.6%.
With `COc1ccc2[nH]c([S+]([O-])Cc3ncc(C)c(OC)c3C)nc2c1` (stereo not drawn) [Omeprazole], the activation at 2 µM in data set [1] (setting [2]) is -5.2%. The activation at 10 µM in data set [1] (setting [3]) turned out to be 5.2%. For the same molecule, the viability at 0.1 µM with expanded OPCs (setting [4]) is 84.3%. In addition, in the data set on expanded OPCs (setting [5]), the viability at 1 µM was determined as 88.4%. Moreover, the viability at 10 µM in the data set with expanded OPCs (setting [6]) came out at 85.8%.
